Assay results: the NIST ThermoML archive (doi:10.1021/acs.jced.5b00197)

Assay: refractive index (other wavelength) (dimensionless); xn = mol fraction of the nth substance listed
Conditions: 94.64 kPa, Liquid, Standard Abbe refractometry

CC(=O)O [acetic acid] + Cc1ccccc1
refractive index
Conditions	Wavelength=404.7 nm	Wavelength=435.8 nm	Wavelength=486.1 nm	Wavelength=546.1 nm	Wavelength=644 nm	Wavelength=706.5 nm
293.15 K, x1 = 0.146	–	–	–	–	1.48087	1.47771
293.15 K, x1 = 0.277	–	–	–	–	1.46744	1.46997
293.15 K, x1 = 0.397	–	–	–	–	1.4556	1.4528
293.15 K, x1 = 0.506	–	–	–	–	1.44297	1.44033
293.15 K, x1 = 0.605	–	–	–	–	1.43097	1.42851
293.15 K, x1 = 0.697	–	–	–	–	1.41867	1.41635
293.15 K, x1 = 0.782	–	–	–	–	1.40657	1.40444
293.15 K, x1 = 0.859	–	–	–	–	1.39469	1.39271
293.15 K, x1 = 0.897	–	–	–	–	1.38534	1.38353
293.15 K, x1 = 0.932	–	–	–	–	1.38047	1.37874
293.15 K, x1 = 0.967	–	–	–	–	1.37542	1.37375
293.15 K, x1 = 1	–	–	–	–	1.37055	1.36896
298.15 K, x1 = 0.146	1.50896	1.50121	1.49239	1.48532	–	–
298.15 K, x1 = 0.277	1.4934	1.48619	1.47801	1.47142	–	–
298.15 K, x1 = 0.397	1.47979	1.47305	1.46545	1.45928	–	–
298.15 K, x1 = 0.506	1.46521	1.45896	1.45191	1.44622	–	–
298.15 K, x1 = 0.605	1.45129	1.44555	1.43909	1.43383	–	–
298.15 K, x1 = 0.697	1.43707	1.43182	1.42596	1.42117	–	–
298.15 K, x1 = 0.782	1.42305	1.41834	1.41304	1.40874	–	–
298.15 K, x1 = 0.859	1.41005	1.40512	1.40043	1.39655	–	–
298.15 K, x1 = 0.897	1.39862	1.39482	1.3906	1.38706	–	–
298.15 K, x1 = 0.932	1.39296	1.38941	1.3854	1.38208	–	–
298.15 K, x1 = 0.967	1.3871	1.38379	1.38002	1.37691	–	–
298.15 K, x1 = 1	1.38126	1.37816	1.37466	1.37174	–	–
